In patent US8354433B2, “Anti-inflammatory agents as virostatic compounds” (4SC AG, priority 2009, dated 2013):
Like-named read-outs stand apart in the source and are kept apart here.

Legend:
human PBMCs = experiment: MTS cytotoxicity in human PBMCs; conditions: seven days
[1] = biological target: dihydroorotate dehydrogenase (DHODH) (Homo sapiens, UniProt Q02127); experiment: DHODH inhibition, in vitro assay; type: biochemical
HIV-191US005 = experiment: Anti-HIV efficacy in fresh human PBMCs (RT activity and p24 ELISA); type: cell-based, HIV-1; conditions: Human immunodeficiency virus 1, PBMC, 168 h; for EC50: read-out: EC50/nM; for EC90: read-out: EC90/nM
Influenza Virus (H7N7) = experiment: microbe, parasite or virus in culture; type: cell-based, avian influenza virus (Fowl Plaque Virus; conditions: unidentified influenza virus, H7N7, A549, 16 h; for inhibition at 30 µM: read-out: Antiviral Activity % Inhibition
[2] = Table 8, read-out: DHODH IC50/nM

Sequence of dihydroorotate dehydrogenase (DHODH) (Q02127 whole entry): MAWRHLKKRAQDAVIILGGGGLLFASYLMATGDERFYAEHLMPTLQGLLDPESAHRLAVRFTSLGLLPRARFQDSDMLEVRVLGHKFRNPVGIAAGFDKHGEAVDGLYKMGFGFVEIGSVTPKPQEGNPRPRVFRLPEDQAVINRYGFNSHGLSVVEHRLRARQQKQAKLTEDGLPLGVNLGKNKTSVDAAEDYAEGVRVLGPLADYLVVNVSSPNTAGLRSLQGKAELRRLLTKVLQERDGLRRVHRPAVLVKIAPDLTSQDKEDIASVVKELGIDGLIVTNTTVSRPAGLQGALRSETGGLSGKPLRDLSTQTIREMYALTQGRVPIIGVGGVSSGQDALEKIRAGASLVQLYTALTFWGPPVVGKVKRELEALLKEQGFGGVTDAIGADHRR

| SMILES | TC50/nM (human PBMCs) [nM] | IC50 ([1]; DHODH IC50/nM, Table 1) [nM] | EC50 (HIV-191US005; Endpoint RT, seven days) [nM] | EC90 (HIV-191US005; Endpoint RT, seven days) [nM] | EC50 (HIV-191US005; Endpoint p24, seven days) [nM] | EC90 (HIV-191US005; Endpoint p24, seven days) [nM] | IC50 [1, 2] [nM] | inhibition at 30 µM (Influenza Virus (H7N7)) [%] | EC50 (Influenza Virus (H7N7)) [nM] | IC50 [1] [nM] |
| --- | --- | --- | --- | --- | --- | --- | --- | --- | --- | --- |
| O=C(Nc1ccc(-c2ccccc2)cc1)Nc1ccccc1C(=O)O [Compound 7, 2-(3-biphenyl-4-ylureido)benzoic acid] | >100000 | < 20 | 50 | 210 | 60 | 230 | – | – | – | – |
| COc1cccc(-c2c(F)c(F)c(NC(=O)c3occc3C(=O)O)c(F)c2F)c1 [Compound 8, 2-(2,3,5,6-tetrafluoro-3′-methoxybiphenyl-4-ylcarbamoyl)furan-3-carboxylic acid] | >100000 | < 20 | 760 | 2700 | 840 | 2970 | < 20 | > 50 | – | – |
| CCOc1cccc(-c2cc(F)c(NC(=O)c3cscc3C(=O)O)c(F)c2)c1 [Compound 9, 4-(3′-ethoxy-3,5-difluorobiphenyl-4-ylcarbamoyl)thiophene-3-carboxylic acid] | – | – | – | – | – | – | < 20 | > 80 | – | – |
| COc1cccc(-c2c(F)c(F)c(NC(=O)C3=C(C(=O)O)CCC3)c(F)c2F)c1 [Compound 10, 2-(2,3,5,6-tetrafluoro-3′-methoxybiphenyl-4-ylcarbamoyl)cyclopent-1-enecarboxylic acid] | – | – | – | – | – | – | – | > 80 | – | – |
| COc1ccccc1-c1c(F)c(F)c(NC(=O)C2=C(C(=O)O)CCC2)c(F)c1F [Compound 11, 2-(2,3,5,6-tetrafluoro-2′-methoxybiphenyl-4-ylcarbamoyl)cyclopent-1-enecarboxylic acid] | – | – | – | – | – | – | < 20 | > 90 | ~3000 | – |
| O=C(O)C1=C(C(=O)Nc2c(F)cc(-c3cccc(OC(F)(F)F)c3)cc2F)CCC1 [Compound 12, 2-(3,5-difluoro-3′-(trifluoromethoxy)biphenyl-4-ylcarbamoyl)cyclopent-1-enecarboxylic acid] | – | – | – | – | – | – | 20 to 200 | > 80 | – | – |
| O=C(O)C1=C(C(=O)Nc2c(F)c(F)c(-c3cccc(OC(F)(F)F)c3)c(F)c2F)C(O)CC1 (stereo not shown) [Compound 13, 3-hydroxy-2-(2,3,5,6-tetrafluoro-3′-(trifluoromethoxy)biphenyl-4-ylcarbamoyl)cyclopent-1-enecarboxylic acid] | – | – | – | – | – | – | < 20 | > 50 | – | – |
| COc1ccc(-c2ccc(NC(=O)C3=C(C(=O)O)CCC3)cc2Cl)cc1 [Compound 14, 2-(2-chloro-4′-methoxybiphenyl-4-ylcarbamoyl)cyclopent-1-enecarboxylic acid] | >100000 | 20 to 200 | 5240 | 12200 | 5180 | 16600 | 20 to 200 | > 50 | – | – |
| O=C(O)c1cscc1C(=O)Nc1c(F)cc(-c2cccc(OC(F)(F)F)c2)cc1F [Compound 15, 4-(3,5-difluoro-3′-(trifluoromethoxy)biphenyl-4-ylcarbamoyl)thiophene-3-carboxylic acid] | – | – | – | – | – | – | < 20 | > 80 | – | – |
| CN(C)c1ccc(-c2ccc(NC(=O)C3=C(C(=O)O)CCC3)cc2Cl)cc1 [Compound 23, 2-(2-Chloro-4′-dimethylamino-biphenyl-4-ylcarbamoyl)-cyclopent-1-enecarboxylic acid] | >100000 | 20 to 200 | 1070 | 3480 | 1000 | 3720 | – | – | – | – |
| COc1cccc(-c2ccc(NC(=O)c3ccsc3C(=O)O)c(F)c2)c1 [Compound 24, 3-(3-Fluoro-3′-methoxy-biphenyl-4-ylcarbamoyl)-thiophene-2-carboxylic acid] | 55800 | – | 3970 | 9070 | 4540 | 12300 | – | – | – | 20 to 200 |
| O=C(O)C1=C(C(=O)Nc2c(F)c(F)c(-c3cccc(OC(F)(F)F)c3)c(F)c2F)CSC1 [Compound 25, 4-(2,3,5,6-Tetrafluoro-3′-trifluoromethoxy-biphenyl-4-ylcarbamoyl)-2,5-dihydro-thiophene-3-carboxylic acid] | >100000 | < 20 | 1560 | 3020 | 1180 | 3160 | – | – | – | – |
